Publication PMC12040169 (PLOS Biology, 2025)

test: in vitro; conditions: human, hela cells, % viability

First: CC(C)c1nnc(NC(=O)CC2CCN(C(=O)C3(c4ccccc4)CCCC3)CC2)s1 [CBK285905]
Second: O=C(CC1CCN(C(=O)Cc2ccccc2)CC1)Nc1nc2c(s1)CCCCC2 [CBK286001]
The viability at 28.5 h, 10 µM of the first is higher: 94.9% for the first, 90.3% for the second.

Going from Cc1ccc(CC(=O)N2CCC(Cc3ccc(-c4cccc(C)c4)cc3)(C(N)=O)CC2)cc1 [CBK285906] to CNC(=O)C1(Cc2ccc(-c3cccc(C)c3)cc2)CCN(C(=O)CC(C)(C)C)CC1 [CBK285923], the viability at 28.5 h, 10 µM falls from 89% to 86.4%.

First: NC(=O)C1(Cc2ccccc2-c2ccccc2)CCN(C(=O)Cc2ccccc2)CC1 [CBK285909]
Second: COc1ccc(CC(=O)N2CCC(Cc3ccccc3-c3ccccc3)(C(N)=O)CC2)cc1 [CBK285911]
The viability at 28.5 h, 10 µM of the first is higher: 95.9% for the first, 91.8% for the second.

Compared with COc1cc(CN2CCC(Cc3ccccc3-c3ccccc3)(C(N)=O)CC2)cc(OC)c1 [CBK285912], COc1ccccc1-c1ccccc1CN(C)Cc1ccccc1N1CCOCC1 [CBK286000] is higher in viability at 28.5 h, 10 µM: 88.1% for the first, 88.7% for the second.

Compared with COc1cccc(CN2CC=CCC(C3CCN(c4nc(C)cc(C)n4)CC3)C2=O)c1 (stereo not drawn) [CBK285915], COc1ccc(C(NC(=O)CC2CCN(c3nc(C)cc(C)n3)CC2)C2CC2)cc1 (stereo not drawn) [CBK285994] is higher in viability at 28.5 h, 10 µM: 85.6% for the first, 93.4% for the second.

Going from CC(C)NC(=O)c1cc(C2CCN(C(=O)CCOc3ccccc3F)C2)nc2ccccc12 (stereo not drawn) [CBK285917] to CC(C)NC(=O)c1cc(C2CCN(C(=O)CCCc3ccc(F)cc3)C2)nc2ccccc12 (stereo not drawn) [CBK285921], the viability at 28.5 h, 10 µM falls from 101% to 95.2%.

First: COc1cccc(C(=O)NC[C@H]2CC[C@H](c3cc(C(N)=O)c4ccccc4n3)CC2)c1OC [CBK285919]
Second: Cc1nc(-c2ccc(CNC(=O)C(Cc3ccccc3)N3CCCC3)cc2)ccc1C(N)=O (stereo not drawn) [CBK286017]
The viability at 28.5 h, 10 µM of the first is lower: 88.6% for the first, 92.6% for the second.

Going from Cc1cc(C)nc(N2CCCC(O)(c3nc(C)c(CCOc4ccccc4)s3)CC2)n1 (stereo not drawn) [CBK285924] to Cc1cc(C)nc(N2CCC(CC(=O)NCCOc3cccc(F)c3)CC2)n1 [CBK285996], the viability at 28.5 h, 10 µM rises from 111% to 112%.

Going from CC(C)CNC(=O)c1cc(C2CN(Cc3c[nH]nc3C(C)(C)C)CCO2)nc2ccccc12 (stereo not drawn) [CBK285925] to CNC(=O)c1sc2ccccc2c1C1CN(Cc2cn(C)c3cc(OC)ccc23)CCO1 (stereo not drawn) [CBK286087], the viability at 28.5 h, 10 µM falls from 104% to 91.9%.

Going from Cc1ccc2c(c1)cc(C(=O)N1CCC(C(=O)NCCc3ccc(Cl)cc3)C1)n2C (stereo not drawn) [CBK285926] to Cc1ccc2c(c1)cc(C(=O)N1CCOC(C(=O)N3CCc4ccccc4C3)C1)n2C (stereo not drawn) [CBK286035], the viability at 28.5 h, 10 µM falls from 103% to 93.8%.

First: CC(C)NC(=O)c1sc2ccccc2c1C1CCN(S(=O)(=O)c2ccccc2)C1 (stereo not drawn) [CBK285927]
Second: Cn1c(-c2ccccc2)cnc1NC(=O)C1CN(S(=O)(=O)c2ccc(F)cc2)C1 [CBK285945]
The viability at 28.5 h, 10 µM of the first is lower: 83.1% for the first, 98.4% for the second.

Going from Cc1cc(-c2cnc(N)nc2)cc(C2CCCN(C(=O)COc3c(C)cccc3C)C2)n1 (stereo not drawn) [CBK285933] to Cc1cc(-c2cnc(N)nc2)cc(C2CCCN(S(=O)(=O)c3ccc(F)c(C)c3)C2)n1 (stereo not drawn) [CBK285934], the viability at 28.5 h, 10 µM rises from 103% to 105%.

First: COc1ccc(-c2ccccc2NC(=O)C2CC(=O)N(Cc3cccc(F)c3)C2)cc1 (stereo not drawn) [CBK285937]
Second: O=C(CCn1c(=O)oc2ccccc21)Nc1ccc2c(c1)CN(Cc1ccccc1)C2 [CBK285946]
The viability at 28.5 h, 10 µM of the first is lower: 89.3% for the first, 120% for the second.

Going from COc1ccc(CCC(=O)N2CCCC2c2cc(Nc3nccs3)cc(C)n2)cc1 (stereo not drawn) [CBK285939] to Cc1csc(Nc2cccc(C3CCCN3C(=O)CCOc3ccccc3C)n2)n1 (stereo not drawn) [CBK285977], the viability at 28.5 h, 10 µM rises from 90% to 101%.

First: O=C(CN1CCCC1c1ccc(Nc2ccc(F)cn2)cn1)Nc1ccc(F)cc1 (stereo not drawn) [CBK285941]
Second: CC(C)(CNC(=O)c1ccc(=O)n(CC(=O)Nc2ccc(F)cc2)c1)c1cccc(F)c1 [CBK285955]
The viability at 28.5 h, 10 µM of the first is higher: 106% for the first, 86.7% for the second.

First: CC(Cc1ccc(N(C)C)cc1)NC(=O)C1CN(S(=O)(=O)c2ccc(F)cc2)C1 (stereo not drawn) [CBK285942]
Second: O=C(Nc1nc2c(s1)CCCCC2)C1CN(S(=O)(=O)c2ccc(F)cc2)C1 [CBK286005]
The viability at 28.5 h, 10 µM of the first is higher: 114% for the first, 95% for the second.

Compared with COc1cccc2[nH]c(C(=O)N3CCOC(c4cccc(-c5c(F)cccc5F)n4)C3)cc12 (stereo not drawn) [CBK285948], COc1c(C)cccc1C(=O)N1CCCC(c2ccc(Nc3nc(C)cc(C)n3)cn2)C1 (stereo not drawn) [CBK285989] is lower in viability at 28.5 h, 10 µM: 110% for the first, 98.5% for the second.

Going from O=c1[nH]c(=O)c2cc(S(=O)(=O)N3CCc4[nH]c5ccccc5c4C3)ccc2[nH]1 [CBK285949] to O=C(CC1CCN(Cc2cccc(C(F)(F)F)c2)CC1)NCc1ccc2[nH]c(=O)[nH]c2c1 [CBK285954], the viability at 28.5 h, 10 µM rises from 96.7% to 97.8%.

Compared with Cc1cccc(CNC(=O)CC2CCN(Cc3cccc(C(F)(F)F)c3)CC2)n1 [CBK285950], Cn1c(=O)oc2cc(NC(=O)CC3CCN(Cc4cccc(C(F)(F)F)c4)CC3)ccc21 [CBK285953] is lower in viability at 28.5 h, 10 µM: 105% for the first, 90% for the second.

Going from CCOc1cc(F)ccc1NC(=O)CC1CCN(c2nc(C)cc(C)n2)CC1 [CBK285958] to Cc1cc(C)nc(Nc2ccc(C3CCCN(C(=O)C(C)(C)c4cccc(F)c4)C3)nc2)n1 (stereo not drawn) [CBK286007], the viability at 28.5 h, 10 µM falls from 103% to 85.2%.

Compared with Cn1cnc2ccc(NC(=O)CC3CCN(C(=O)CC4CCCCC4)CC3)cc21 [CBK285961], Cc1nc2ccc(NC(=O)CC3CCN(C(=O)CC4CCCCC4)CC3)cc2[nH]1 [CBK285967] is higher in viability at 28.5 h, 10 µM: 84.1% for the first, 94.6% for the second.

Compared with O=C(CC1CCN(C(=O)CC2CCCCC2)CC1)NCc1ccccc1N1CCCC1 [CBK285962], Cc1[nH]c2ccccc2c1C(=O)N1CCC(CC(=O)N2CCN(c3ccccc3)CC2)CC1 [CBK286033] is lower in viability at 28.5 h, 10 µM: 99.2% for the first, 96.6% for the second.

Going from Cn1c(-c2ccccc2)cnc1NC(=O)CC1CCN(C(=O)Cc2ccccc2)CC1 [CBK285966] to CC(C)c1ncc(CN2CCC(CC(=O)N3CCN(c4ccccc4)CC3)CC2)cn1 [CBK286048], the viability at 28.5 h, 10 µM rises from 96.9% to 101%.

First: Cc1cccnc1Nc1ccc(C2CCCN(C(=O)Cc3c[nH]c4ccccc34)C2)nc1 (stereo not drawn) [CBK285968]
Second: Cc1cccnc1Nc1ccc(C2CCCN(C(=O)Cc3ccc4c(c3)CCCO4)C2)nc1 (stereo not drawn) [CBK285969]
The viability at 28.5 h, 10 µM of the first is higher: 97.7% for the first, 89.8% for the second.

Going from COc1ccc(OC(C)(C)C(=O)N2CCCC(c3ccc(Nc4ncccn4)cn3)C2)cc1 (stereo not drawn) [CBK285970] to Cc1cc(CCCC(=O)N2CCCC(c3ccc(Nc4ncccn4)cn3)C2)ccc1F (stereo not drawn) [CBK286003], the viability at 28.5 h, 10 µM falls from 83.9% to 78.6%.

Compared with Cc1cc(C)c2nc(NC(=O)c3ccc(=O)n(CC(=O)NC4CCCCC4)c3)sc2c1 [CBK285980], O=C(Cn1cc(C(=O)Nc2cc(F)ccc2N2CCCC2)ccc1=O)NC1CCCCC1 [CBK285981] is lower in viability at 28.5 h, 10 µM: 107% for the first, 102% for the second.

Going from O=C(Cn1cc(C(=O)NCC2(c3ccccc3Cl)CC2)ccc1=O)NC1CCCCC1 [CBK285985] to O=C(Cn1cc(C(=O)NCC2(c3ccccc3)CCCC2)ccc1=O)NC1CCCC1 [CBK286040], the viability at 28.5 h, 10 µM rises from 92.7% to 104%.

Compared with O=C(Cn1cc(C(=O)NC2(c3ccccc3)CCCC2)ccc1=O)NC1CCCCC1 [CBK285986], O=C(Cn1cccc(C(=O)NC2CCCCC2)c1=O)NC1(c2ccccc2)CCCC1 [CBK286059] is higher in viability at 28.5 h, 10 µM: 82.6% for the first, 85.1% for the second.

First: O=C(CC1Oc2ccccc2NC1=O)Nc1ccc2c(c1)CN(Cc1ccccc1)C2 (stereo not drawn) [CBK285991]
Second: O=C(Cn1cccc(C(=O)Nc2ccc(F)cc2)c1=O)NC1(c2ccccc2)CCCC1 [CBK286057]
The viability at 28.5 h, 10 µM of the first is lower: 88% for the first, 96.3% for the second.

Compared with O=C(Nc1ccc(F)cc1)c1ccc(=O)n(CC(=O)N2CCC3(CCCCC3)C2)c1 [CBK286006], O=C(Cn1cc(C(=O)Nc2ccc(F)cc2)ccc1=O)Nc1nc2c(s1)CCCCC2 [CBK286080] is higher in viability at 28.5 h, 10 µM: 94.9% for the first, 99.3% for the second.

First: Cc1ccc(C2CCCN2C(=O)c2cccn(CC(=O)NC3CCCCC3)c2=O)cc1C (stereo not drawn) [CBK286009]
Second: CC1CCc2nc(NC(=O)Cn3cccc(C(=O)NC4CCCCC4)c3=O)sc2C1 (stereo not drawn) [CBK286064]
The viability at 28.5 h, 10 µM of the first is lower: 92.2% for the first, 101% for the second.

Going from COc1cc(C)c(C)cc1S(=O)(=O)N1[C@@H](c2ccccc2F)C[C@@H]2NC(=O)CCC[C@H]21 [CBK286012] to COc1cccc(CC(=O)N2[C@H](Cc3ccccc3)C[C@@H]3NCCCCC[C@H]32)c1 [CBK286030], the viability at 28.5 h, 10 µM falls from 112% to 105%.

First: CNC(=O)c1ccc(-c2ccc(CNC(=O)C(C)Oc3ccc(C)c(C)c3)cc2)nc1C (stereo not drawn) [CBK286014]
Second: CNC(=O)c1ccc(-c2ccc(CNC(=O)CCc3cccc(Cl)c3)cc2)nc1C [CBK286015]
The viability at 28.5 h, 10 µM of the first is higher: 104% for the first, 86.9% for the second.

First: CC(C)(CNC(=O)c1ccc(=O)n(CC(=O)N2CCc3ccccc32)c1)c1ccccc1F [CBK286020]
Second: CC(C)(CNC(=O)Cn1cccc(C(=O)Nc2ccc(F)cc2)c1=O)c1ccccc1F [CBK286067]
The viability at 28.5 h, 10 µM of the first is higher: 127% for the first, 97.4% for the second.

Going from O=C(Cn1cc(C(=O)NC2(c3ccccc3)CCCC2)ccc1=O)NCc1ccc(F)cc1 [CBK286027] to O=C(NCC1(c2ccccc2)CCCC1)c1ccc(=O)n(CC(=O)N2CCCCC2)c1 [CBK286082], the viability at 28.5 h, 10 µM rises from 84.4% to 93.5%.

Compared with Cc1cc(C(=O)N2CCCC(c3ccc(Cc4ccc(Cl)cc4)cn3)C2)nc(N(C)C)n1 (stereo not drawn) [CBK286036], CC1CCc2nc(NC(=O)Cn3cc(C(=O)Nc4ccc(F)cc4)ccc3=O)sc2C1 (stereo not drawn) [CBK286053] is lower in viability at 28.5 h, 10 µM: 116% for the first, 100% for the second.

First: CC(=O)N1CCCC1C(=O)N1CC(C(=O)Nc2nc3c(C)cc(C)cc3s2)C1 (stereo not drawn) [CBK286039]
Second: O=C(Nc1cc(F)ccc1N1CCCC1)c1ccc(=O)n(CC(=O)N2CCCCC2)c1 [CBK286083]
The viability at 28.5 h, 10 µM of the first is lower: 86% for the first, 97.7% for the second.

Going from CC(C)c1ccc(C(C)NC(=O)Cn2cc(C(=O)Nc3ccc(F)cc3)ccc2=O)cc1 (stereo not drawn) [CBK286049] to O=C(NCC1(c2ccccc2Cl)CC1)c1ccc(=O)n(CC(=O)N2CCCCC2)c1 [CBK286077], the viability at 28.5 h, 10 µM falls from 97.6% to 84.8%.

Compared with O=C(Cn1cccc(C(=O)NC2CCCCC2)c1=O)NCC1(c2ccccc2Cl)CC1 [CBK286054], CC(C)(CNC(=O)Cn1cccc(C(=O)NC2CCCCC2)c1=O)c1cccc(F)c1 [CBK286069] is lower in viability at 28.5 h, 10 µM: 94.6% for the first, 86.9% for the second.
